From article PMC8333620, “Novel Tl(III) complexes containing pyridine-2,6-dicarboxylate derivatives with selective anticancer activity through inducing mitochondria-mediated apoptosis in A375 cells” (Scientific Reports, 2021)
Where two headings read alike, the source gives them in different places.

Tests used:
[1] = test system: A375 (a human melanoma) cell line; test: MTT cytotoxicity assay, A375; type: cell-based; conditions: for IC50: read-out: Cytotoxicity (IC50 ± SEM) against A375; for Viability inhibition, A375: concentration not given
Method: (§1) In this study, A375 (a human melanoma), HT29 (a human colon adenocarcinoma), and HFF (a human foreskin fibroblast) cell lines were provided from the Pasteur Institute (Iran). […] 10 mM stock solutions of compounds were prepared in DMSO and diluted in a fresh medium for use. The final concentration of DMSO never exceeded 0.1% (v/v). […] Then the medium was replaced with the respective medium containing ligands or Tl(III) complexes at different concentrations and incubated for 48 h. 10 μL of MTT was added and the medium was removed after 4 h of incubation. Finally, the violet crystal was solubilized in 100 μL DMSO and the absorbance was measured at 570 nm. IC50 value was measured by the standard method. The evaluations were carried out in triplicate[21],[23].

[2] = test system: HT29 (a human colon adenocarcinoma) cell line; test: MTT cytotoxicity assay, HT29; type: cell-based; conditions: for IC50: read-out: Cytotoxicity (IC50 ± SEM) against HT29
Method: as §1

[3] = MTT cytotoxicity assay, HFF; type: cell-based, human; conditions: human
Method: as §1

[4] = test system: HFF (a human foreskin fibroblast) cell line; test: MTT cytotoxicity assay, HFF; type: cell-based; conditions: MTT, 48 h; read-out: Cytotoxicity (IC50 ± SEM) against HFF
Method: as §1

[5] = Cyclic voltammetry of the complexes; type: physicochemical; conditions: versus Ag/AgCl, KCl 0.1 M, GCE, scan rate 50 V/s; for formal potential E0': 4 × 10^–3 mol/dm^3 in H2O; for EA (anodic peak potential) / EC (cathodic peak potential): H2O
Description: The electrochemical behavior of the complexes and also their ligands was studied by the cyclic voltammograms in the potential range of + 1.5 to –1.5 V and a scan rate of 50 Vs^–1. […] Redox couples at E^0ˊ 0.109, –0.051, and 0.244 V were obtained for C1, C2, and C3, respectively. The electrochemical oxidation of all three complexes seems be a one-stage process which includes irreversible couples with EC = –0.363 V, EA = 0.472 V for C1, EC = –0.271 V, EA = 0.220 V for C2 and EC = –0.337 V, EA = 0.581 V for C3. The peaks can be interpreted according to the Tl(III)/Tl(I) redox system for complexes. […] Therefore, redox couples are related to only the metal centers in complexes[27],[28].
Figure 4 Cyclic voltammogram of complexes c = 4 × 10^–3 mol/dm^3 in H2O medium, KCl (0.1 M) at GCE, scan rate 50 V/s.
Pyridine-2,6-dicarboxylic acid, 4-hydroxy-pyridine-2,6-dicarboxylic acid, 2-aminobenzimidazole, 4-aminopyridine, and thallium(III) nitrate trihydrate were purchased from the commercial sources and were used as received. The solvents were distilled for all synthetic works. Melting points were obtained on an Electrothermal IA-9100 apparatus. The FT-IR spectra were recorded on a Bruker Vector 22 FT-IR spectrometer using KBr pellets. Electronic spectra were recorded on Specord 210, Analytik Jena spectrophotometer in the range of 200–900 nm at room temperature. The ^1HNMR spectra were obtained from Bruker Ultrashield 400 spectrometer. Microanalyses (C, H, N) were measured with a Perkin-Elmer 2004(II) elemental analyzer. Electrochemical experiments were performed using a µAUTOLAB modular electrochemical system (ECO Chemie, Utrecht, the Netherlands) equipped with a PGSTAT type III module driven by GPES software in conjunction with a conventional three-electrode system an Ag/AgCl/3 M KCl and platinum wire as reference and counter electrode respectively and a GC as the working electrode.

A375 cells [6] = test: Cellular uptake of Tl (ICP-MS), A375; type: cell-based, human; conditions: 10 μM, 24 h
Method: A375 cells (1 × 10^7 cells) were treated with 10 μM C1–C3 and Tl(NO3)3.3H2O, respectively, for 24 h at 37 °C, 5% CO2, and 95% air. Cold PBS (phosphate buffer, pH = 7.4) was used for rinsing the cells three times after being collected. Cells were lysed in 1 M NaOH (1 mL) and diluted with 2% (v/v) HNO3 (5 mL) to determine whole-cell thallium content. The amount of thallium taken up by the cells was measured by ICP-MS. The instrument calibrates thallium using a standard solution containing 10, 50, 100, 500, and 1000 ppb thallium. This test was performed as explained on HFF cells treatment to C3[38].

A375 cells [7] = test: Intracellular ROS (H2DCF-DA, flow cytometry), A375; type: cell-based, human; conditions: A375, IC50 concentrations, 24 h
Method: (§2) The generation of intracellular ROS was evaluated by reactive oxygen species assay kit. 2 mL of A375 cells (1 × 10^6 cells/mL) were induced with C1–C3 (at IC50 concentrations) at 37 °C for 24 h, serum-free medium washed twice. Then, the cells were incubated in 2 mL of serum-free medium containing H2DCF-DA (2 μM) for 30 min at 37 °C, serum-free medium washed twice. Cells were collected and assayed by flow cytometer with excitation wavelength at 489 nm and emission wavelength at 524 nm, and ten thousand events were collected. The DCF fluorescence peak for this cell sample was evaluated and data were analyzed by FlowJo software. This test was performed as explained on HFF cells treatment to C3 (at the highest concentration)[38].

HFF cells [8] = test: Intracellular ROS (H2DCF-DA, flow cytometry), HFF; type: cell-based, human; conditions: highest concentration, 24 h, compared with A375
Method: as §2

A375 cells [9] = test: Cell cycle analysis (PI, flow cytometry), A375; type: cell-based, human; conditions: A375, IC50 concentrations, 24 h; with respect to untreated control cells
Method: (§3) A375 cells were seeded in 6-well plates with 1.5 × 10^6 cells /well and treated with the C1 and C3 at IC50 concentrations for 24 h. Cells were trypsinized, collected, and fixed in ice-cold 75% ethanol at − 20 °C overnight. After centrifugation, the fixed cells were rinsed with ice-cold phosphate-buffered saline (PBS) and resuspended in 0.5 mL of PBS containing 100 μg/mL DNase-free RNase A (Thermo Fisher Scientific Biosciences GmbH, St. Leon-Rot, Germany), 50 μg/mL propidium iodide (PI; Sigma Aldrich) in the dark for 30 min. The distribution of the cells in different phases of the cell cycle was determined using flow cytometry (Attune Nxt, Thermo Fisher Scientific-US) and FlowJo software v10.6.1 (https://www.flowjo.com/solutions/flowjo/downloads) was used to analyze the data. This test was performed as explained on HFF cells treatment to C3 (at the highest concentration)[62].

HFF cells [10] = test: Cell cycle analysis (PI, flow cytometry), HFF; type: cell-based, human; conditions: highest concentration, 24 h
Method: as §3

A375 cells [11] = test: Apoptosis by Annexin-V/PI staining; type: cell-based, human; conditions: A375, IC50 concentrations, 24 h
Method: Annexin V-FITC and PI staining (Annexin V/PI) apoptosis detection kit were used for assessing the percentage of dead cells by apoptosis pathway. Briefly, A375 cells were treated with C1 and C3 at IC50 concentrations. After 24 h of incubation, cells were washed with PBS, trypsinized, centrifuged, and re-suspended in 100 μL binding buffer at a concentration of 1 × 10^6 cells/mL, then added 5 μL of annexin V-FITC conjugate (30 min), and 5 μL of Propidium Iodide (PI) to each cell suspension (20 min) in the dark. The samples were analyzed using a flow cytometer (Attune Nxt, Thermo Fisher Scientific-US), and the results were assessed using the FlowJo software.

A375 cells [12] = test: Mitochondrial membrane potential assay (JC-1), A375; type: cell-based, human; conditions: A375, IC50 concentrations, JC-1, 24 h
Method: (§4) Mitochondrial membrane potential analysis was determined by fluorescent dye JC-1 staining according to the manufacturer's protocol for the JC-1 assay kit. In brief, 2 mL of A375 cells (1 × 10^5 cells/mL) were treated with IC50 concentrations of C1 and C3 in 6-well plates for […]. Cells were harvested and washed three times with PBS after 24 h of incubation. Then cells were stained with 1 mL of JC-1 stock solution (10 mg/mL). Assays were initiated by incubating A375 cells with JC-1 for 30 min at 37 °C in the dark and detected with a fluorescence microscope. This test was performed as explained on HFF cells treatment to C3 (at the highest concentration).

HFF cells [13] = test: Mitochondrial membrane potential assay (JC-1), HFF; type: cell-based, human; conditions: highest concentration, JC-1, 24 h
Method: as §4

p53 = test: Western blot, p53 in A375 cells; type: cell-based, human; conditions: A375, IC50 concentrations, 24 h
Method: (§5) After incubation with C1 and C3 at IC50 concentrations for 24 h, A375 cells were harvested and lysed in 150 μL of lysis buffer (149 μL RIPA and 1 μL PMSF), and then placed on ice for 15 min. Total proteins were extracted by centrifuging the cell sample at 10,000 rpm and 4 °C for 10 min. Then about 50 μg of purified proteins were mixed with an equal volume of electrophoresis sample buffer, and the mixture was heated for 10 min. Meanwhile, the equal protein content from the control cells was prepared in the same way. The cell sample (10 μL) was loaded onto 10% SDS-PAGE gels and then transferred onto a microporous polyvinylidene difluoride (PVDF) membrane. The membrane was blocked with 5% BSA in TBST buffer for more than 2 h. After the removal of TBST buffer, membranes were incubated with an appropriate dilution of specific primary antibodies in TBST overnight at 4 °C and then washed with TBST three times. The membranes were incubated with secondary antibodies for 1 h and washed with TBST. The immunoreactive signals were detected using an enhanced chemo-luminance kit (Pierce ECL Western Blotting Substrate) following the procedures given in the user manual[46],[63].

Bax/Bcl-2 = test: Western blot, Bax/Bcl-2 ratio in A375 cells; type: cell-based, human; conditions: A375, IC50 concentrations, 24 h
Method: as §5

procaspase-9 = test: Western blot, procaspase-9 in A375 cells; type: cell-based, human; conditions: A375, IC50 concentrations, 24 h, densitometry
Method: as §5

[14] = MTT, 48 h, read-out: Cytotoxicity (IC50 ± SEM) against HFF

## Nc1nc2ccccc2[nH]1 [2-ab, 2-aminobenzimidazole]
[1]; Homo sapiens, A-375, 48 h
  IC50: > 500 µM
[2]; Homo sapiens, HT-29, 48 h
  IC50: > 500 µM
[3]
  IC50 at 48 h: > 500 µM

## O=C1[O][Pt]2([NH][C@@H]3CCCC[C@H]3[NH]2)[O]C1=O [Oxaliplatin, reference compound]
[1]; MTT, 48 h
  IC50: 331 ± 2.69 µM
[2]; MTT, 48 h
  IC50: 323.1 ± 2.87 µM
[4]
  IC50: 429.2 ± 2.32 µM

## O=C(O)c1cc(O)cc(C(=O)O)n1 [hpydcH2, 4-hydroxy-pyridine-2,6-dicarboxylic acid]
[1]; Homo sapiens, A-375, MTT, 48 h
  IC50: > 500 µM
[2]; Homo sapiens, HT-29, MTT, 48 h
  IC50: > 500 µM
[3]; [14]
  IC50: > 500 µM

## Nc1ccncc1 [4-apy, 4-aminopyridine]
[1]; Homo sapiens, A-375, MTT, 48 h
  IC50: 491.9 ± 1.56 µM
[2]; Homo sapiens, HT-29, MTT, 48 h
  IC50: > 500 µM
[3]; [14]
  IC50: > 500 µM

## O=C(O)c1cccc(C(=O)O)n1 [pydcH2, 2,6-Pyridinedicarboxylic acid]
[1]; Homo sapiens, A-375, 48 h
  IC50: 442.6 ± 1.22 µM
[2]; Homo sapiens, HT-29, 48 h
  IC50: 430.2 ± 2.09 µM
[3]; [14]
  IC50 at 48 h: > 500 µM

## (4-apyH)[Tl(pydc)(pydcH)2]0.5H2O [C3]
[1]; MTT, 48 h
  Viability inhibition, A375: 69.62%
  IC50: 7.23 ± 0.93 µM
[2]; MTT, 48 h, concentration not given
  Viability inhibition, HT29: 53.12%
[2]; MTT, 48 h
  IC50: 193.2 ± 1.12 µM
[4]
  IC50: > 500 µM
[5]
  formal potential E0': 0.244 V
  EA (anodic peak potential): 0.581 V
  EC (cathodic peak potential): –0.337 V
A375 cells [6]
  permeation in A375 cells relative to normal (HFF) cells: almost two times more than normal cells
A375 cells [7]
  ROS level (DCF oxidation), more effective than vehicle control-treated: 229.4%
HFF cells [8]
  production of ROS in HFF cells: much less than what was produced in cancer cells of A375
A375 cells [9]
  rise in the cellular population of the G2-M phase: 21.10%
HFF cells [10]
  effect on cell cycle distribution in HFF cells: does not have a remarkable effect on the cellular population in none of the phases
A375 cells [11]
  apoptosis, more effective than vehicle control-treated: 61.66%
  early apoptosis (annexin V+/PI-, Q3): 11.47%
  late apoptosis (annexin V+/PI+, Q2): 50.19%
A375 cells [12]
  mitochondrial membrane potential (MMP) in A375 cells: MMP reduction
HFF cells [13]
  changes in MMP of HFF cells: insignificant changes
p53
  level of p53: significantly enhanced
Bax/Bcl-2
  ratio of Bax/Bcl-2: 5.25 fold
procaspase-9
  procaspase-9 level compared to control: 110.97%

## (2-abH)[Tl(hpydc)2(H2O)2]∙6H2O [C2]
[1]; MTT, 48 h
  Viability inhibition, A375: 35.28%
  IC50: 421.1 ± 0.55 µM
[2]; MTT, 48 h
  IC50: 486.2 ± 0.69 µM
[4]
  IC50: > 500 µM
[5]
  formal potential E0': –0.051 V
  EA (anodic peak potential): 0.220 V
  EC (cathodic peak potential): –0.271 V
A375 cells [7]
  ROS level (DCF oxidation), more effective than vehicle control-treated: 23.5%

## (2-abH)2[Tl(pydc)2(H2O)2]2∙11H2O [C1]
[1]; MTT, 48 h
  Viability inhibition, A375: 55.44%
  IC50: 81.5 ± 1.02 µM
[2]; MTT, 48 h
  IC50: 354.4 ± 0.71 µM
[4]
  IC50: > 500 µM
[5]
  formal potential E0': 0.109 V
  EA (anodic peak potential): 0.472 V
  EC (cathodic peak potential): –0.363 V
A375 cells [7]
  ROS level (DCF oxidation), more effective than vehicle control-treated: 189.9%
A375 cells [9]
  rise in the cellular population of the G2-M phase: 16.91%
A375 cells [11]
  apoptosis, more effective than vehicle control-treated: 62.24%
  early apoptosis (annexin V+/PI-, Q3): 14.22%
  late apoptosis (annexin V+/PI+, Q2): 48.01%
A375 cells [12]
  mitochondrial membrane potential (MMP) in A375 cells: MMP reduction
p53
  level of p53: significantly enhanced
Bax/Bcl-2
  ratio of Bax/Bcl-2: 3.60 fold
procaspase-9
  procaspase-9 level compared to control: 64.12%
